Assay results from patent US20260217701A1, “SELECTIVE BET INHIBITORS AND USES THEREOF” (Tay Therapeutics Limited, priority 2022, published 2026).
Values joined by “and” are separate entries in the source; they are usually repeats but may differ in a detail not shown here. Equal values may be shown once. Read-outs that look alike come from different tables or passages of the source.

Assay: Rat PK study #4 (Compound A PO 0.2 and 1.0 mg/kg, propylene glycol formulation)
Type: in vivo, Lewis rats
Conditions: propylene glycol-based formulation; for Plasma Concentration: PO 1 mg/kg, 1 mg/kg; for MRT inf: read-out: MRTInf_obs
Experimental: For the fourth rat pharmacokinetic study, the pharmacokinetics of Compound A were assessed in male Lewis rats. Compound A was prepared in two different doses (0.2 mg/kg and 1.0 mg/kg) formulated in 20% propylene glycol/20% Vitamin E TPGS/60% water (see Table 1A for formulations). Animals were divided into two groups based on the compound formulation (n=3/group). The Compound A solutions were administered to animals orally (PO) and animals were then monitored over a 24 h period.
Blood samples (~0.2 mL) were collected according to a schedule (0.25, 0.5, 1, 2, 4, 6, 8, and 24 h following the initial dosing) by jugular vein by cannulation and EDTA-K2 was used as anticoagulant. Within 30 minutes of collection, the samples were centrifuged at approximately 4000 times g-force for 5 minutes at 4° C. to obtain blood plasma. The plasma samples were immediately divided into two aliquots (~75 μL each), transferred to a cryogenic vial, and stored in a freezer at −75±15° C. prior to analysis.
The concentration of Compound A in plasma samples was determined by liquid chromatography-mass spectrometry (LC-MS/MS) using a Shimadzu HPLC (DGU-20A5R; LC-30AD; SIL-30AC; Rack changer II; CTO-30A; and CBM-20A) and an AB API 5500+LC/MS/MS instrument. Samples were analyzed on an Agilent Poroshell 120 EC-C18 4 μm (50×2.1 mm) column. Solution A in the mobile phase was 95% water (0.1% formic acid) and solution B was 95% acetonitrile in water (0.1% formic acid), injection volume was 10 μL, and flow rate was 0.6 mL/min.
To prepare samples for analysis, serial concentrations were prepared by diluting the stock solution of analyte with a 50% acetonitrile in water solution. 5 μL working solutions (5, 10, 20, 50, 100, 500, 1000, 5000, and 10000 ng/ml) were added to 50 μL of the blank Lewis rat plasma to achieve calibration standards of ~0.5 to 1000 ng/ml (0.5, 1, 2, 5, 10, 50, 100, 500, and 1000 ng/ml) in a total volume of 55 μL. Five quality control samples at 1 ng/ml, 2 ng/ml, 5 ng/ml, 50 ng/ml, and 800 ng/ml for plasma were prepared independently of those used for the calibration curves. These QC samples were prepared on the day of analysis in the same way as calibration standards.
55 μL of standards, 55 μL of QC samples and 55 μL of unknown samples (50 μL of unknown rat plasma with 5 µL of blank solution) were added to 200 μL of acetonitrile containing IS mixture (verapamil) for precipitating protein respectively. The samples were then vortexed for 30 s. After centrifugation at 4° C., 3900 rpm for 15 min, the supernatant was diluted 3 times with water. 10 μL of diluted supernatant was injected into the LC/MS/MS system for quantitative analysis.

[1] = 0.2 mg/kg PO, individual animals
[2] = male, Lewis, rat, plasma, po, 0.2 mg/kg, 0.2 mg/kg PO, individual animals
[3] = male, Lewis, rat, plasma, po, 0.2 mg/kg, 0.2 mg/kg PO, mean

For `Cn1cc(-c2ccccc2)c(-c2cn(C)c(=O)c3[nH]c(-c4cnn(C(F)(F)F)c4)cc23)cc1=O` [Compound A, 6-methyl-4-(1-methyl-2-oxo-5-phenyl-1,2-dihydropyridin-4-yl)-2-(1-(trifluoromethyl)-1H-pyrazol-4-yl)-1,6-dihydro-7H-pyrrolo[2,3-c]pyridin-7-one], the AUCInf [1] was 82.0 ng·h/mL and 51.1 ng·h/mL and 103 ng·h/mL, the AUC_%Extrap_obs [1] was 7.28% and 43.9% and 3.68% and the AUClast [1] was 76.0 ng·h/mL and 28.7 ng·h/mL and 99.1 ng·h/mL. For the same compound, the AUClast/D [1] was 380 (ng · h/mL)/(mg/kg) and 143 (ng · h/mL)/(mg/kg) and 496 (ng · h/mL)/(mg/kg), the Cmax [1] was 5.29 ng/mL and 8.20 ng/mL and the MRTInf_obs [1] was 9.52 h and 7.69 h. For the same compound, the T1/2 [1] was 6.09 h and 4.94 h, the AUC_%Extrap_obs (0.2 mg/kg PO, mean) was 18.3% and the AUClast/D (0.2 mg/kg PO, mean) was 340 (ng · h/mL)/(mg/kg). The AUCInf (1 mg/kg PO, individual animals) was 454 ng·h/mL and 217 ng·h/mL, the AUC_%Extrap_obs (1 mg/kg PO, individual animals) was 3.74% and 14.6% and the AUClast (1 mg/kg PO, individual animals) was 437 ng·h/mL and 185 ng·h/mL and 447 ng·h/mL. The AUClast/D (1 mg/kg PO, individual animals) was 437 (ng · h/mL)/(mg/kg) and 185 (ng · h/mL)/(mg/kg) and 447 (ng · h/mL)/(mg/kg), the Cmax (1 mg/kg PO, individual animals) was 47.5 ng/mL and 23.3 ng/mL and 44.9 ng/mL and the MRTInf_obs (1 mg/kg PO, individual animals) was 11.4 h. For the same compound, the T1/2 (1 mg/kg PO, individual animals) was 9.35 h, the AUC_%Extrap_obs (1 mg/kg PO, mean) was 9.2% and the AUClast/D (1 mg/kg PO, mean) was 356 (ng · h/mL)/(mg/kg). The clinical symptoms (0.2 and 1 mg/kg PO) was “no abnormal clinical symptoms observed”, the “Plasma Concentration” value (Lewis rats, 0.25 h, individual animals) was 6.05 ng/mL and 2.36 ng/mL and 5.82 ng/mL and the “Plasma Concentration” value (Lewis rats, 0.5 h, individual animals) was 19.1 ng/mL. The “Plasma Concentration” value (Lewis rats, 2 h, individual animals) was 47.5 ng/mL and 23.3 ng/mL and 44.9 ng/mL, the “Plasma Concentration” value (Lewis rats, 4 h, individual animals) was 37.4 ng/mL and 15.0 ng/mL and 27.5 ng/mL and the “Plasma Concentration” value (Lewis rats, 6 h, individual animals) was 25.4 ng/mL and 9.27 ng/mL and 16.5 ng/mL. For the same compound, the “Plasma Concentration” value (Lewis rats, 8 h, individual animals) was 20.4 ng/mL and 7.30 ng/mL and 11.6 ng/mL, the “Plasma Concentration” value (Lewis rats, 24 h, individual animals) was 2.29 ng/mL and 2.35 ng/mL and 19.1 ng/mL and the Tmax [2] was 2 h. It also gave a half-life [2] of 6.51 h, a Cmax (male, Lewis, rat, plasma, po, 0.2 mg/kg, 0.2 mg/kg PO, individual animals, read-out: Cmax) of 7.99 ng/mL and an MRT inf [2] of 8.72 h. For the same compound, the AUC(0-inf) [3] was 79 ng·h/mL, the AUC(0-t) [3] was 67.9 ng·h/mL and the Tmax [3] was 2.67 h. It also gave a half-life [3] of 5.85 h, a Cmax (male, Lewis, rat, plasma, po, 0.2 mg/kg, 0.2 mg/kg PO, mean, read-out: Cmax) of 7.16 ng/mL and an MRT inf [3] of 8.65 h. The concentration at 0.25 h (male, Lewis, rat, plasma, po, 0.2 mg/kg, Lewis rats, PO 0.2 mg/kg, 0.25 h, mean of 3 animals) was 0.34 ng/mL, the concentration at 0.5 h (male, Lewis, rat, plasma, po, 0.2 mg/kg, Lewis rats, PO 0.2 mg/kg, 0.5 h, individual animals) was 2.31 ng/mL and the concentration at 0.5 h (male, Lewis, rat, plasma, po, 0.2 mg/kg, Lewis rats, PO 0.2 mg/kg, 0.5 h, mean of 3 animals) was 1.77 ng/mL. For the same compound, the concentration at 1 h (male, Lewis, rat, plasma, po, 0.2 mg/kg, Lewis rats, PO 0.2 mg/kg, individual animals) was 5.24 ng/mL and the concentration at 1 h (male, Lewis, rat, plasma, po, 0.2 mg/kg, Lewis rats, PO 0.2 mg/kg, mean of 3 animals) was 4.51 ng/mL.
